Counter-ions that a name gives are not always drawn.

The values that follow come from patent publication US6599892B2, “7-alkylidene cephalosporanic acid derivatives and methods of using the same” (Research Corporation Technologies, Inc., priority 1994, dated 2003).

Assay [1] addresses Class C β-lactamase of Enterobacter cloacae P99 (Enterobacter cloacae, UniProt P05364). In kind it is biochemical. The conditions noted are these: for IC50: 10 minute incubation of enzyme and inhibitor, nitrocefin substrate, read-out: IC50 (nM) E. cloacea P99. The procedure:
(§1) The IC50 value of each compound was determined as follows. Following a 10 minute incubation of a dilute solution of enzyme (2.56 nm) and inhibitor (<0.64 mM), a […] of this incubation mixture was then further diluted into 1 mL nitrocefin solution, and the rate of hydrolysis was measured during a 1 minute period by monitoring the absorbance of nitrocefin as a function of time.

Assay [2] has as its target E. cloacae SC 12368 β-lactamase (Enterobacter cloacae, UniProt P05364). The assay is classed as biochemical. The conditions noted are these: 10 minute incubation of enzyme and inhibitor; nitrocefin substrate; read-out: IC50 (nM) E. cloacea SC12368. The protocol: as §1
Assay [3] deals with E. coli. W3310 β-lactamase (TEM2) (Escherichia coli, UniProt P62593, Q37K). The conditions noted are these: read-out: IC50 (nM) E. Coli WC3310; 10 minute incubation of enzyme and inhibitor; nitrocefin substrate.

On to `CC(=O)OCC1=C(C(=O)O)N2C(=O)/C(=C\Br)C2SC1` (stereo not shown) [Compound 6l, Sodium salt of 7-[(E)-bromomethylene] cephalosporanic acid], for which the IC50 in assay [1], in assay [2] and in assay [3] was above 20000 nM throughout.

As for `CC(=O)OCC1=C(C(=O)O)N2C(=O)/C(=C/C(=O)OC(C)(C)C)C2SC1` (stereo not shown) [Compound 6g, Sodium salt of 7-[(Z)-t-butoxycarbonylmethylene] cephlosporanic acid], the half-maximal inhibitory concentration (IC50) – broadly, the point on the concentration scale where inhibition reaches its midpoint – in assay [1] was 2500 nM; in assay [2], above 20000 nM; in assay [3] it was above 20000 nM.

Turning to `CC(=O)OCC1=C(C(=O)O)N2C(=O)/C(=C\c3ccccc3)C2S(=O)(=O)C1` (stereo not shown) [Compound 7c, Sodium salt of 7-[(E)-benzylidene] cephalosporanic acid sulfone], the concentration for half-maximal inhibition (IC50) in assay [1], in assay [2] and in assay [3] was above 20000 nM throughout.

Consider `CC(=O)OCC1=C(C(=O)O)N2C(=O)/C(=C/CO)C2S(=O)(=O)C1` (stereo not shown) [Compound 7j, Sodium salt of 7-[(Z)-hydroxymethylmethylene] cephalosporanic acid sulfone], for which the IC50 in assay [1], in assay [2] and in assay [3] was above 20000 nM each time.

`CC(=O)OCC1=C(C(=O)O)N2C(=O)C(=C(Cl)Cl)C2SC1` (stereo not shown) [Compound 6b, Sodium salt of 7-[dichloromethylene] cephalosporanic acid]: the IC50 in assay [1], in assay [2] and in assay [3] was above 20000 nM throughout.

Take `CON(C)C(=O)/C=C1/C(=O)N2C(C(=O)O)=C(COC(C)=O)CSC12` (stereo not shown) [Compound 6k, Sodium of salt of 7-[(Z)-N-methoxy-N-methylamino-carbonylmethylene] cephlosporanic acid]: the IC50 in assay [1], in assay [2] and in assay [3] was above 20000 nM throughout.

Turning to `CC(=O)OCC1=C(C(=O)O)N2C(=O)C(=C(Cl)Cl)C2S(=O)(=O)C1` (stereo not shown) [Compound 7b, Sodium salt of 7-[dichloromethylene] cephalosporanic acid sulfone], the values for the IC50 in assay [1], in assay [2] and in assay [3] were above 20000 nM, above 20000 nM and 8300 nM, respectively.

Regarding `CC(=O)OCC1=C(C(=O)O)N2C(=O)/C(=C/c3ccccc3)C2S(=O)(=O)C1` (stereo not shown) [Compound 7d, Sodium salt of 7-[(Z)-benzylidene] cephalosporanic acid sulfone], the concentration for half-maximal inhibition (IC50) was 6250 nM in assay [1], 6800 nM in assay [2] and above 20000 nM in assay [3].

In the case of `CC(=O)OCC1=C(C(=O)O)N2C(=O)/C(=C/C(C)(C)C)C2SC1` (stereo not shown) [Compound 6m, Sodium salt of 7-[(Z)-t-butylmethylene] cephalosporanic acid], the half-maximal inhibitory concentration (IC50) in assay [1], in assay [2] and in assay [3] was above 20000 nM throughout.

As for `CC(=O)/C=C1/C(=O)N2C(C(=O)O)=C(COC(C)=O)CSC12` (stereo not shown) [Compound 6h, Sodium salt of 7-[(Z)-acetylmethylene] cephlosporanic acid], the half-inhibitory concentration (IC50) in assay [1], in assay [2] and in assay [3] was above 20000 nM throughout.

On to `CC(=O)OCC1=C(C(=O)O)N2C(=O)C(=C(Br)Br)C2SC1` (stereo not shown) [Compound 6a, Sodium salt of 7-[dibromomethylene] cephalosporanic acid], for which the 50% inhibitory concentration (IC50) in assay [1], in assay [2] and in assay [3] was above 20000 nM throughout.

Regarding `CC(=O)OCC1=C(C(=O)O)N2C(=O)C(=C(Br)Br)C2S(=O)(=O)C1` (stereo not shown) [Compound 7a, Sodium salt of 7-[dibromomethylene] cephalosporanic acid sulfone], the concentration for half-maximal inhibition (IC50) in assay [1], in assay [2] and in assay [3] was above 20000 nM each time.

As for “Sodium salt of 7-[(Z)-t-butoxymethylene] cephalosporanic acid sulfone [Compound 7g]”, the IC50 was determined as 7800 nM in assay [1] and 5900 nM in assay [2].

`CC(=O)OCC1=C(C(=O)O)N2C(=O)/C(=C/C(C)(C)C)C2S(=O)(=O)C1` (stereo not shown) [Compound 7m, Sodium salt of 7-[(Z)-t-butylmethylene] cephalosporanic acid sulfone]: the IC50 in assay [1], in assay [2] and in assay [3] was above 20000 nM throughout.

Consider `CC(=O)OCC1=C(C(=O)[O-])N2C(=O)/C(=C/c3ccccn3)C2S(=O)(=O)C1.[Na+]` (stereo not shown) [Compound 7e, Sodium salt of 7-[(Z)-(2′-pyridyl)methylene] cephalosporanic acid sulfone], for which, in assay [1], the “fold increase in activity of sulfone over its sulfide 6e” value is given as 1300 fold, the “fold increase in activity over tazobactam” value amounted to 20 fold and the half-maximal inhibitory concentration (IC50) amounted to 25 nM. The IC50 in assay [2] was determined as 25 nM. Besides, in assay [3], the IC50 was found to be 800 nM.

For `CC(=O)OCC1=C(C(=O)O)N2C(=O)/C(=C/c3ccccn3)C2SC1` (stereo not shown) [Compound 6e, Sodium salt of ^7-[(Z)-(2′-pyridyl)methylene] cephalosporanic acid], the IC50 in assay [1], in assay [2] and in assay [3] was above 20000 nM throughout.

Regarding `CC(=O)OCC1=C(C(=O)O)N2C(=O)/C(=C\Br)C2S(=O)(=O)C1` (stereo not shown) [Compound 7l, Sodium salt of 7-(E)-[bromomethylene] cephalosporanic acid sulfone], the IC50 in assay [1], in assay [2] and in assay [3] was above 20000 nM throughout.
